Experimental data published in PMC7504770, “Mechanistic Insights into the Chaperoning of Human Lysosomal-Galactosidase Activity: Highly Functionalized Aminocyclopentanes and C-5a-Substituted Derivatives of 4-epi-Isofagomine” (Molecules, 2020).
Entries after “also recorded” stand apart in the source; their conditions may differ.

Experiments:
[1] = molecular target: T1, Fabrazyme = commercial recombinant lysosomal α-galactosidase (GH27) (Homo sapiens, UniProt P06280); experiment: Ki determination, Fabrazyme (acid α-galactosidase); type: biochemical; details: 37 °C, pH 5.5, substrate 2,4-DNP α-Gal
T1 construct: purchased
T1 sequence (P06280 32-429): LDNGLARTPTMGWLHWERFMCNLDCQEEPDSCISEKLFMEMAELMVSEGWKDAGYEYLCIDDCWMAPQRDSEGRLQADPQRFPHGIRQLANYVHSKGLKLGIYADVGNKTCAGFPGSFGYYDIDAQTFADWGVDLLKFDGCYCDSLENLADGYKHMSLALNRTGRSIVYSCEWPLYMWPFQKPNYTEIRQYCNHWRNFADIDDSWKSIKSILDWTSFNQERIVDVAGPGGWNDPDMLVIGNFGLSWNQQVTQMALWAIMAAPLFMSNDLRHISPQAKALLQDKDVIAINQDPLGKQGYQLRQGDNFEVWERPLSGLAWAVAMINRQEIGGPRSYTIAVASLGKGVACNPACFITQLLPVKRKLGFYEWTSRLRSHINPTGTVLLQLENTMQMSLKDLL
Experimental: Kinetic studies were performed at 37 °C in an appropriate buffer (specific conditions depicted below). In a typical assay, the enzyme was incubated with different inhibitor concentrations for up to 5 min before initiating the reaction by the addition of substrate. The initial reaction rate was measured by monitoring the increase in absorbance at 400 nm for up to ten minutes using a Cary4000 (Varian, Palo Alto, CA, USA). Ki determinations were performed using at least two different substrate concentrations. For each inhibitor, a range of four to six inhibitor concentrations bracketing the ultimately determined Ki value was used for each substrate concentration. Dixon plots (1/v vs. [I]) were constructed to validate the use of competitive inhibition model. The data were then fit using non-linear regression analysis with Grafit 7.0 [Erithacus Software, UK].
n.i. stands for no inhibition or weak inhibition with an estimated Ki value higher than 1 mM.
Fabrazyme (Acid α-galactosidase): 20 mM sodium citrate, 50 mM sodium phosphate, 1.0 mM tetrasodium EDTA, 0.25% v/v Triton X-100® and 0.25% w/v taurocholic acid buffer (pH 5.5). Substrate: 2,4-DNP α-Gal, Km = 0.65 mM.

[2] = system: R201H/S149F mutant lysosomal β-galactosidase; experiment: Chaperoning activity in R201H/S149F cells (Morquio B/GM1-gangliosidosis); type: cell-based, human
Experimental: (§1) Human β-galactosidase and β-hexosaminidase activity measurements were performed in duplicate assays, unless otherwise stated. Fibroblast cells were harvested by trypsinization in 0.9% NaCl containing 0.01% Triton, homogenized by sonication (3 × 10 s, Sonifier Bandelin Sonopuls, Bandelin, Berlin, Germany) and centrifuged at 13,000 rpm for 2 min in a table top centrifuge (Biofuge Pico, Heraeus, Hanau, Germany). Protein amounts were determined according to the method of Lowry.
(§2) For assessment of β-Gal activity, 20 µL of cell homogenate were mixed with 100 µL of 0.5 mM 4-methylumbelliferyl-β-D-galactopyranoside (Sigma-Aldrich, St. Louis, MO, USA), in 100 mM citrate buffer (pH 4.0) containing 100 mM NaCl and 0.02% NaN3.
(§3) Human skin fibroblasts were grown in minimal essential medium (MEM) with Earle’s Salts (Sigma Aldrich, St. Louis, MO, USA) containing 10% fetal bovine serum, 400 µM L-glutamine, and 50 µg/mL gentamycin at 37 °C and 5% CO2. All cells used in this study were between the third and nineteenth passages.
(§4) Fibroblasts were grown to semi-confluency in 6-well plates. Particular chaperone was added to the culture medium at following concentrations: 100–0.02 µmol. Cells were incubated for four additional days at 37 °C. Cells were harvested by scraping and prepared for β-galactosidase and β-hexosaminidase assays as described above.

[3] = molecular target: T2, R201C mutant lysosomal β-galactosidase (Homo sapiens, UniProt P16278, R201C); experiment: Chaperoning activity in R201C patient fibroblasts; type: cell-based; details: for chaperoning activity with R201C mutant β-galactosidase: R201C cells (juvenile GM1-gangliosidosis), Figure 7; for β-galactosidase activity at higher concentrations: concentrations higher than 10 µM; for β-galactosidase activity at more than 100 µM: concentrations of more than 100 µM; for influence on β-galactosidase activity: incubation of the cells up to 10 µM
T2 construct: Cell lines from one GM1-Gangliosidosis-patient (R201C) and one WT; endogenous in cells; host or cells: human skin fibroblasts of a GM1-gangliosidosis patient (R201C)
T2 sequence (P16278 29-677 R201C): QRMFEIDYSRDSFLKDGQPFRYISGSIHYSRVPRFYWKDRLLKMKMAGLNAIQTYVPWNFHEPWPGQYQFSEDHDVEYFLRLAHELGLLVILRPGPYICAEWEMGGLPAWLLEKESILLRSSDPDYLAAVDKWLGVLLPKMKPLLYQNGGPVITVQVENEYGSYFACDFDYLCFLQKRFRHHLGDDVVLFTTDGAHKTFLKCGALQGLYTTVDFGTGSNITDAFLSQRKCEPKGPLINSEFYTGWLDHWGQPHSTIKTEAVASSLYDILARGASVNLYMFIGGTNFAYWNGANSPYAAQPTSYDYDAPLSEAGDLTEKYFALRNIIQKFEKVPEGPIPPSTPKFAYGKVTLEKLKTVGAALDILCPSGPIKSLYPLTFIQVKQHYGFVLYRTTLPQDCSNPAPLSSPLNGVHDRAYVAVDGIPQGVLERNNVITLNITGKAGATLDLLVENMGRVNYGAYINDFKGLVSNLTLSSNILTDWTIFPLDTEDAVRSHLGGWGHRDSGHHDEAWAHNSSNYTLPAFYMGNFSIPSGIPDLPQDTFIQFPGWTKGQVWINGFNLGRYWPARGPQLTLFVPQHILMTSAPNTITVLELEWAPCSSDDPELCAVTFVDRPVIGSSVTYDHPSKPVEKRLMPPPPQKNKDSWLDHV
Experimental: as §1
as §2, with “NaN3. After incubation at 37 °C for 30 min, the reaction was stopped by adding 2.5 mL 400 mM glycine/NaOH (pH 10.4).” for “NaN3.”
Cell lines from one GM1-Gangliosidosis-patient (R201C) and one WT, were exposed to compounds 22, 31, and 37, for evaluation of their chaperone effects.
as §3
Potential chaperones were dissolved in DMSO and diluted in 10 mM phosphate buffer (pH 7.0) containing 100 mM NaCl, 0.01% NaN3, and 0.01% Triton for the IC50-measurements and in MEM for the in-vivo tests. The total DMSO concentration in the media was less than 1% and had no effect on β-Gal activity or cell viability.
as §4

Structure (SMILES) | Ki [1] [mM] | β-gal activity increase [2] [fold] | chaperoning activity with R201C mutant β-galactosidase [3] | β-galactosidase activity at higher concentrations [3] | β-galactosidase activity at more than 100 µM [3] | influence on β-galactosidase activity [3]
CCCCCCCCNC1C=C(CO)C(O)C(O)C1O (stereo not drawn) [Compound 1, N-octyl-epi-valienamine] | > 1 | ≥ 10 | – | – | – | –
CN(C)c1cccc2c(S(=O)(=O)NCCCCC3NCC(O)C(O)C3CO)cccc12 (stereo not drawn) [Compound 11] | – | 9.5 | reacted very positively | – | – | –
CN(C)c1cccc2c(S(=O)(=O)NCCCCCC[C@@H]3NC[C@@H](O)[C@@H](O)[C@H]3CO)cccc12 [Compound 14] | – | – | reacted very positively | – | – | –
CCCCCCCCN[C@H]1[C@H](O)[C@@H](O)[C@@H](O)[C@H]1CO [Compound 16] | > 1 | – | reacted very positively | – | – | –
CN(C)c1cccc2c(S(=O)(=O)NCCCCCCN[C@H]3[C@H](O)[C@@H](O)[C@@H](O)[C@H]3CO)cccc12 [Compound 17] | – | 9 | reacted very positively | – | – | –
CN(C)c1cccc2c(S(=O)(=O)NCCCCCC[C@H]3NC[C@@H](O)[C@@H](O)[C@H]3CO)cccc12 [Compound 22] | > 1 | – | reacted very positively; also recorded: encouraging dose-dependent chaperoning profiles | – | – | –
CN(C)c1cccc2c(S(=O)(=O)NCCCCCCN[C@H]3C[C@@H](O)[C@@H](O)[C@H]3CO)cccc12 [Compound 31, (1R,2S,3R,4S)-3-Hydroxymethyl-4-(6′-dansylaminohexylamino)cyclopentane-1,2-diol] | > 1 | – | distinctly reduced chaperoning activity | decreased enzyme activity | dramatic loss | no notable influence
CN(C)c1cccc2c(S(=O)(=O)NCCCCCCN[C@H]3[C@H](F)[C@@H](O)[C@@H](O)[C@H]3CO)cccc12 [Compound 37, (1S,2S,3S,4R,5R)-4-(6′-Dansylaminohexyl)amino-3-fluoro-5-hydroxymethylcyclopentane-1,2-diol] | > 1 | – | only trailed by deoxyfluoro analog 37 | decreased enzyme activity | dramatic loss | no notable influence
